{"source": "patent US20090149387A1", "about": "“Use of GLP-1 Peptides” (Novo Nordisk A/S, priority 1996, published 2009)", "key": {"Healthy human volunteers": {"system": "Healthy human volunteers", "test": "Effect of iv infused GLP-1(7-36)amide on food intake, satiety, hunger, fullness and appetite in normal human subjects (double-blind crossover)", "assay_type": "in vivo", "conditions": "iv infusion 50 pmol/(kg·h) 9.00-15.00, 20 healthy subjects, versus saline", "excerpt": "Healthy human volunteers (20 subjects) were in a double-blind crossover trial given an iv infusion of 50 pmol/(kg·h) of GLP-1(7-36)amide or saline on separate, but otherwise identical experimental days. The infusion was started at 9.00 and lasted until 15.00. At 9.45 the subjects received a fixed amount of breakfast and at 14.15 they had lunch of an identical composition but ad libitum. The subjects rated their feeling of satiety, hunger, fullness and appetite on a visual analogue scale every half hour. The results are given below:\nThe energy intake of each subjects was measured. The intakes were 3.9 MJ with GLP-1 and 4.3 MJ with Saline resulting in a p-value of 0.009."}, "rats": {"system": "rats", "conditions": "Tang-Christensen et al. 1996, route not stated; cited from earlier work"}, "Mice [1]": {"system": "Mice", "test": "Appetite suppression in mice by subcutaneous synthetic GLP-1(7-36)amide: Complan consumption (Example 4)", "assay_type": "in vivo", "conditions": "p<0.001", "method": "The test method was as described in Example 3 except that the mice were pre-exposed to formula milk (Complan®—a nutritionally complete infant milk substitute) for one day, then fasted one day. On the test day, consumption of Complan® was measured for each mouse during a 10 min period.\nMice were tested for appetite suppression by subcutaneous injection of GLP-1(7-36)amide dissolved in phosphate buffered saline."}, "Mice [2]": {"system": "Mice", "test": "Appetite suppression in mice: sucrose consumption measured immediately after intraperitoneal injection (Example 2)", "assay_type": "in vivo", "conditions": "85 micrograms (equivalent to 3.4 mg/kg) intraperitoneally, tested immediately after injection, 10 minute period, versus vehicle, p-value 0.002", "method": "Mice were deprived of their normal food for two days and given free access to a 20% sucrose solution on the first day of food deprivation. After the two day food deprivation period, the mice were injected intraperitoneally with 0.5 ml of a solution containing the test substance. Immediately after injection, individual mice were placed in one of eight 15 cm square test boxes with a stainless steel grid floor and a glass drinking tube which projected into the box. […] Consumption of the sucrose solution was measured over a 10 minute period by electronically recording the total amount of contact with the sucrose solution during the test session. The degree of appetite suppression produced by a given test substance was determined by statistical comparison of the mean duration of sucrose consumption by control (vehicle treated) mice with that of mice treated with a test substance. The degree of appetite suppression in a treated group of mice was expressed as percent difference between the test and control group's response duration means. […]"}}, "note": "No end group written: not given here.", "data": [{"substance": "GLP-1: literature GLP-1 of b7; b6: proglucagon fragment 72-108 commonly referred to as GLP-1(1-37) or just GLP-1", "values": [{"measurement": "Satiety (visual analogue scale rating)", "setting": "Healthy human volunteers; p = 0.006", "result": "GLP-1 > Saline, p = 0.006"}, {"measurement": "Appetite (visual analogue scale rating)", "setting": "Healthy human volunteers; p = 0.007", "result": "GLP-1 < Saline, p = 0.007"}, {"measurement": "Hunger (visual analogue scale rating)", "setting": "Healthy human volunteers; p = 0.007", "result": "GLP-1 < Saline, p = 0.007"}, {"measurement": "Fullness (visual analogue scale rating)", "setting": "Healthy human volunteers; p = 0.010", "result": "GLP-1 > Saline, p = 0.010"}]}, {"substance": "GLP-1(1-36)amide (HDEFERHAEGTFTSDVSSYLEGQAAKEFIAWLVKGR-NH2; UniProt P01275 92-127, looked up, fragment) [GLP-1 fragment 1-36, C-terminal amide; literature result]", "values": [{"measurement": "Effect on food intake", "setting": "rats", "result": "no effect on food intake"}]}, {"substance": "GLP-1(7-36)amide", "values": [{"measurement": "Suppression of feeding (Complan consumption)", "setting": "Mice [1]; 1 mg/kg subcutaneous, 30 min after injection", "result": 45, "unit": "%"}, {"measurement": "Maximum effect, suppression of feeding (Complan consumption)", "setting": "Mice [1]; 20 mg/kg subcutaneous (highest dose tested)", "result": 60, "unit": "%"}, {"measurement": "Suppression of sucrose consumption", "setting": "Mice [2]", "result": 60, "unit": "%"}]}]}
